Series [1] has as its system Respiratory syncytial virus recombinant with luciferase (RSV-Luc5). Put plainly: NHBE RSV-Luc5 384-well assay (EC50 RSVFLUC NHBE-384 v2), Example W. Format: cell-based. Particulars: human respiratory syncytial virus, 72 h, read-out: EC50 RSV FLUC NHBE 384 V2 (per Ex. W). An excerpt: Example W: NHBE RSV-Luc5 384-Well Assay (EC50 RSVFLUC NHBE-384 v2)
Normal Human Bronchial Epithelial (NHBE) cells were purchased from Lonza (Walkersville, MD Cat #CC2540) and maintained in BEGM Bronchial Epithelial Cell Growth Medium BulletKit (Lonza CC-3170).
Cells were thawed, expanded, and were used for experiments at passage 2. Respiratory syncytial virus recombinant with luciferase (RSV-Luc5) (≥1×10^7 Infectious Units/mL (IU/mL) determined by TCID50) was purchased from Microbiologics (Saint Cloud, MN). Viral replication was determined in NHBE cells in the following manner.
Compounds are prepared in 100% DMSO in 384-well polypropylene plates (Greiner, Monroe, NC, Cat #784201) with 8 compounds per plate in grouped replicates of 4 at 10 serially diluted concentrations (1:3). The serially diluted compounds were transferred to low dead volume Echo plates (Labcyte, Sunnyvale, CA, Cat #LP-0200).
The test compounds were spotted to 384-well assay plates (Greiner, Monroe, NC, Cat #781091) at 200 nL per well using an Echo acoustic dispenser (Labcyte, Sunnyvale, CA). NHBE cells were harvested and suspended in BEGM Bronchial Epithelial Cell Growth Medium BulletKit and seeded to the pre-spotted assay plates at 5,000 cells per well in 30 μL. RSV-Luc5 virus was diluted in BEGM Bronchial Epithelial Cell Growth Medium BulletKit at 500,000 Infectious Units (IU) per mL and 10 μL per well was added to the assay plates containing cells and compounds, for an MOI of 1. The assay plates were incubated for 3 days at 37° C. and 5% CO2. At the end of incubation, One-Glo reagent (Promega, Madison, WI, Cat #E6120) was prepared. The assay plates and One-Glo reagent were equilibrated to room temperature for at least 15 minutes. 40 μL per well of One-Glo reagent was added and the plates were incubated at room temperature for 15 minutes before reading the luminescence signal on an EnVision multimode plate reader (Perkin Elmer, Waltham, MA). Remdesivir was used as positive control and DMSO was used as negative control. Values were normalized to the positive and negative controls (as 0% and 100% replication, respectively) and data was fitted using non-linear regression analysis by Gilead's dose response tool. The EC50 value for each compound was defined as the concentration reducing the viral replication by 50%.

The nature of series [2]: GI S9 stability, rat, Example Y. Format: in vitro ADME. To be noted: pooled intestinal S9 fractions; rat intestinal S9, 1.0 mg/mL protein, 2 μM compound, pH 7.4; read-out: GIS9 Rat T½ (per Ex. Y). The procedure: (§1) Example Y: GI S9 Stability Data
(§2) Stock solutions of test compounds in dimethyl sulfoxide (DMSO) having a final concentration of 10 mM were prepared and used in all experiments. Sekisui XenoTech (Kansas City, KS) provided pooled intestinal S9 fractions. All other chemicals were purchased from Sigma-Aldrich (St. Louis, MO) or VWR (West Chester, PA). Internal Standard/Quench (IS/Q) used to stop reactions was 100 nM labetalol in (by volume) methanol (10%) and acetonitrile (90%).
(§3) Stability in Intestinal S9 Fractions: Duplicate aliquots of test compound or positive control substrate were added to S9 stock diluted with phosphate buffered saline (137 mM NaCl, 2.7 mM KCl, 10 mM phosphate buffer), pH 7.4, to obtain a protein concentration of 1.0 mg/mL. The metabolic reactions were initiated by the addition of the substrates to the S9 reaction mixture to a final concentration of 2 μM. At 0, 10, 20, 30, 60 and 120 min, 25 μL aliquots of the reaction mixture were transferred to plates containing 225 μl of IS/Q solution. After quenching, the plates were centrifuged at 3000×g for 30 minutes. 150 μL aliquots of each supernatant were dried down then reconstituted with 300 μL water. Aliquots (10 μL) of the prepared samples were analyzed on a Thermo Q-Exactive mass spectrometer as described below.
(§4) Liquid Chromatography—Mass Spectrometry: Quantification of test compounds and control substrate was performed by analyte/internal standard peak area ratio (PAR) values measured on a Thermo Q-Exactive mass spectrometer coupled to a Dionex UltiMate 3000 HPLC with a Leap Technologies HTC PAL autosampler. The column used for analysis was a Waters Acquity BEH C18 (1.7 μm particle size, 2.1×50 mm). Mobile phase A consisted of 0.1% (v/v) formic acid in water. Mobile phase B consisted of 0.1% (v/v) formic acid in acetonitrile. Elution of analytes was achieved by a series of linear gradients varying the proportions of A and B. The mass spectrometer was calibrated on a weekly basis and mass tolerance of 5 ppm was used.
(§5) Metabolic stabilities in S9 fractions were determined by measuring the rates of disappearance of test compound and positive control substrate.
(§6) Data (% of substrate remaining) were plotted on a semi-log scale and fitted using an exponential decline model:
(§7) Ct=C0×e^−ln2/T1/2×t • Where Ct—% of substrate remaining at time=t; C0—% of substrate remaining at time=0; t—time; T1/2—half-life. • The Half-life (T1/2) is determined by the following equation: […]
(§8) Assuming a first-order reaction, the slope (k) is extrapolated from the aforementioned plotted data.

Series [3] can be described thus: GI S9 stability, human, Example Y. Format: in vitro ADME. To be noted: pooled intestinal S9 fractions; human intestinal S9, 1.0 mg/mL protein, 2 μM compound, pH 7.4; read-out: GIS9 Human T½ (per Ex. Y). The procedure: as §1, §2, §3, §4, §5, §6, §7, §8

As for `N#C[C@]1(COC(=O)OC2CCCC2)O[C@@H](c2ccc3c(N)ncnn23)[C@H](O)[C@@H]1O` [Compound 1, ((2R,3S,4R,5S)-5-(4-aminopyrrolo[2,1-f][1,2,4]triazin-7-yl)-2-cyano-3,4-dihydroxytetrahydrofuran-2-yl)methyl cyclopentyl carbonate], the EC50 in series [1] stood at 12.8 µM. Besides, the half-life at 2 μM in series [2] is 6 min; in series [3], 31 min.

Take `CC(C)(C)COC(=O)OC[C@@]1(C#N)O[C@@H](c2ccc3c(N)ncnn23)[C@H](O)[C@@H]1O` [Compound 2, ((2R,3S,4R,5S)-5-(4-aminopyrrolo[2,1-f][1,2,4]triazin-7-yl)-2-cyano-3,4-dihydroxytetrahydrofuran-2-yl)methyl neopentyl carbonate]: in series [1], the EC50 amounted to 11.4 µM. Also, the values for the half-life at 2 μM in series [2] and in series [3] were 6 min and 23 min, respectively.

Take `CC[C@H](C)OC(=O)OC[C@@]1(C#N)O[C@@H](c2ccc3c(N)ncnn23)[C@H](O)[C@@H]1O` [Compound 4, ((2R,3S,4R,5S)-5-(4-aminopyrrolo[2,1-f][1,2,4]triazin-7-yl)-2-cyano-3,4-dihydroxytetrahydrofuran-2-yl)methyl ((S)-sec-butyl) carbonate]: in series [1], the EC50 is 9.85 µM. The results for the half-life at 2 μM in series [2] and in series [3] were 10 min and 65 min, respectively.

On to `N#C[C@]1(COC(=O)OCCc2ccccc2)O[C@@H](c2ccc3c(N)ncnn23)[C@H](O)[C@@H]1O` [Compound 5, ((2R,3S,4R,5S)-5-(4-aminopyrrolo[2,1-f][1,2,4]triazin-7-yl)-2-cyano-3,4-dihydroxytetrahydrofuran-2-yl)methyl phenethyl carbonate], for which the EC50 in series [1] stood at 12.5 µM. The half-life at 2 μM in series [2] worked out at 4 min; in series [3] it was 44 min.

Regarding `COC(=O)OC[C@@]1(C#N)O[C@@H](c2ccc3c(N)ncnn23)[C@H](O)[C@@H]1O` [Compound 6, ((2R,3S,4R,5S)-5-(4-aminopyrrolo[2,1-f][1,2,4]triazin-7-yl)-2-cyano-3,4-dihydroxytetrahydrofuran-2-yl)methyl methyl carbonate], the 50% effective concentration (EC50) in series [1] is 36.6 µM. In addition, the half-life at 2 μM came to 37 min in series [2] and 201 min in series [3].

On to `CC(C)CCOC(=O)OC[C@@]1(C#N)O[C@@H](c2ccc3c(N)ncnn23)[C@H](O)[C@@H]1O` [Compound 7, ((2R,3S,4R,5S)-5-(4-aminopyrrolo[2,1-f][1,2,4]triazin-7-yl)-2-cyano-3,4-dihydroxytetrahydrofuran-2-yl)methyl isopentyl carbonate], for which, in series [1], the EC50 was 13.9 µM. The half-life at 2 μM in series [2] turned out to be 3 min; in series [3] it was 20 min.

With `CC(C)COC(=O)OC[C@@]1(C#N)O[C@@H](c2ccc3c(N)ncnn23)[C@H](O)[C@@H]1O` [Compound 8, ((2R,3S,4R,5S)-5-(4-aminopyrrolo[2,1-f][1,2,4]triazin-7-yl)-2-cyano-3,4-dihydroxytetrahydrofuran-2-yl)methyl isobutyl carbonate], the EC50 in series [1] came out at 12.5 µM. Further, the half-life at 2 μM in series [2] came out at 7 min; in series [3], 29 min.

For the compound `CCCOC(=O)OC[C@@]1(C#N)O[C@@H](c2ccc3c(N)ncnn23)[C@H](O)[C@@H]1O` [Compound 9, ((2R,3S,4R,5S)-5-(4-aminopyrrolo[2,1-f][1,2,4]triazin-7-yl)-2-cyano-3,4-dihydroxytetrahydrofuran-2-yl)methyl propyl carbonate], the EC50 in series [1] is 15.9 µM. In addition, the values for the half-life at 2 μM in series [2] and in series [3] were 8 min and 29 min, respectively.

Turning to `CC[C@@H](C)OC(=O)OC[C@@]1(C#N)O[C@@H](c2ccc3c(N)ncnn23)[C@H](O)[C@@H]1O` [Compound 10, ((2R,3S,4R,5S)-5-(4-aminopyrrolo[2,1-f][1,2,4]triazin-7-yl)-2-cyano-3,4-dihydroxytetrahydrofuran-2-yl)methyl ((R)-sec-butyl) carbonate], the EC50 in series [1] was 11.4 µM. Besides, the half-life at 2 μM in series [2] came to 13 min; in series [3], 104 min.

For `CC(C)OC(=O)OC[C@@]1(C#N)O[C@@H](c2ccc3c(N)ncnn23)[C@H](O)[C@@H]1O` [Compound 11, ((2R,3S,4R,5S)-5-(4-aminopyrrolo[2,1-f][1,2,4]triazin-7-yl)-2-cyano-3,4-dihydroxytetrahydrofuran-2-yl)methyl isopropyl carbonate], the EC50 in series [1] stood at 12 µM. The half-life at 2 μM in series [2] is 14 min; in series [3], 104 min.

With `N#C[C@]1(COC(=O)OC2CCOCC2)O[C@@H](c2ccc3c(N)ncnn23)[C@H](O)[C@@H]1O` [Compound 12, ((2R,3S,4R,5S)-5-(4-aminopyrrolo[2,1-f][1,2,4]triazin-7-yl)-2-cyano-3,4-dihydroxytetrahydrofuran-2-yl)methyl (tetrahydro-2H-pyran-4-yl) carbonate], in series [1], the EC50 came to 8.88 µM. Moreover, the half-life at 2 μM amounted to 58 min in series [2] and 789 min in series [3].

With `CC(C)(C)OC(=O)OC[C@@]1(C#N)O[C@@H](c2ccc3c(N)ncnn23)[C@H](O)[C@@H]1O` [Compound 13, ((2R,3S,4R,5S)-5-(4-aminopyrrolo[2,1-f][1,2,4]triazin-7-yl)-2-cyano-3,4-dihydroxytetrahydrofuran-2-yl)methyl tert-butyl carbonate], in series [1], the 50% effective concentration (EC50) came to 10.8 µM. Besides, the figures for the half-life at 2 μM in series [2] and in series [3] were 74 min and 97 min, respectively.

With `CCC(CC)OC(=O)OC[C@@]1(C#N)O[C@@H](c2ccc3c(N)ncnn23)[C@H](O)[C@@H]1O` [Compound 14, ((2R,3S,4R,5S)-5-(4-aminopyrrolo[2,1-f][1,2,4]triazin-7-yl)-2-cyano-3,4-dihydroxytetrahydrofuran-2-yl)methyl pentan-3-yl carbonate], the EC50 in series [1] was found to be 14.9 µM. In addition, the half-life at 2 μM in series [2] turned out to be 16 min; in series [3] it was 104 min.

With `CC(C)COC(=O)OC[C@@]1(C#N)O[C@@H](c2ccc3c(N)ncnn23)[C@@H]2OC(=O)O[C@@H]21` [Compound 15, ((3aS,4R,6S,6aS)-6-(4-aminopyrrolo[2,1-f][1,2,4]triazin-7-yl)-4-cyano-2-oxotetrahydrofuro[3,4-d][1,3]dioxol-4-yl)methyl isobutyl carbonate], the EC50 in series [1] was determined as 11.4 µM. Also, the half-life at 2 μM in series [2] came out at 2 min; in series [3], 1 min.

Values taken from patent publication US20230382940A1, “ANTIVIRAL COMPOUNDS AND METHODS OF MAKING AND USING THE SAME” (Gilead Sciences, Inc., priority 2022, published 2023).
